Test results taken from ChEMBL document CHEMBL5303304, “EUbOPEN Chemogenomics Library - IncuCyte” (2023).
Several values for one entry are separate records, joined by “and”; a condition that tells them apart may be missing. Identical values can stand only once.

Legend:
Format in all cases: toxicity, cell-based
HEK-293T = experiment: Incucyte cell viability with HEK293T; settings: human, 10 µM, compound concentration 10 uM
Fibroblast = experiment: Incucyte cell viability with human fibroblast; settings: 10 µM, compound concentration 10 uM
U2OS = experiment: Incucyte cell viability with U2OS; settings: human, 10 µM, compound concentration 10 uM
Further: unitless GR value; below 1 slowed growth and below 0 cell loss.

| SMILES | Growth Rate (HEK-293T; 6 h, replicate number 1) | Growth Rate (HEK-293T; 6 h, replicate number 2) | Growth Rate (HEK-293T; 12 h, replicate number 1) | Growth Rate (HEK-293T; 12 h, replicate number 2) | Growth Rate (HEK-293T; 18 h, replicate number 1) | Growth Rate (HEK-293T; 18 h, replicate number 2) | Growth Rate (HEK-293T; 24 h, replicate number 1) | Growth Rate (HEK-293T; 24 h, replicate number 2) | Growth Rate (Fibroblast; 12 h, replicate number 1) | Growth Rate (Fibroblast; 12 h, replicate number 2) | Growth Rate (Fibroblast; 18 h, replicate number 1) | Growth Rate (Fibroblast; 18 h, replicate number 2) | Growth Rate (Fibroblast; 24 h, replicate number 2) | Growth Rate (U2OS; 6 h, replicate number 2) | Growth Rate (U2OS; 12 h, replicate number 1) | Growth Rate (U2OS; 12 h, replicate number 2) | Growth Rate (U2OS; 18 h, replicate number 1) | Growth Rate (U2OS; 18 h, replicate number 2) | Growth Rate (U2OS; 24 h, replicate number 2) | Growth Rate (Fibroblast; 6 h, replicate number 2) | other results |
| --- | --- | --- | --- | --- | --- | --- | --- | --- | --- | --- | --- | --- | --- | --- | --- | --- | --- | --- | --- | --- | --- |
| COc1cc(C(=O)NC2CCN(C)CC2)ccc1Nc1ncc2c(n1)N(C1CCCC1)CC(F)(F)C(=O)N2C | 0.85 | -0.29 | 0.86 | -0.06 | 0.53 | -0.2 | 0.26 | -0.23 | 0.51 | 0.72 | 0.36 | 0.45 | 0.42 | 0.18 | 0.23 | -0.13 | 0.12 | -0.08 | -0.03 | – | Growth Rate (Fibroblast; 24 h, replicate number 1): 0.28; Growth Rate (U2OS; 0 h, replicate number 1): -0.99; Growth Rate (U2OS; 0 h, replicate number 2): 0.71; Growth Rate (U2OS; 6 h, replicate number 1): 0.46; Growth Rate (U2OS; 24 h, replicate number 1): 0.2 |
| Cc1cccc(CC(=O)N2CCc3c2ccc(-c2cn(C)c4ncnc(N)c24)c3F)n1 | 0.02 | 0.26 | 0.24 | 0.53 | 0.4 | 0.55 | 0.46 | 0.57 | 0.46 | 0.94 | 0.46 | 0.69 | 0.58 | – | 0.43 | – | 0.31 | 0.97 | 0.71 | 0.98 | Growth Rate (Fibroblast; 6 h, replicate number 1): 0.64; Growth Rate (Fibroblast; 24 h, replicate number 1): 0.52; Growth Rate (U2OS; 6 h, replicate number 1): -0.61; Growth Rate (U2OS; 24 h, replicate number 1): 0.59 |
| CC(C)(C)S(=O)(=O)c1ccc2nccc(Nc3n[nH]c4ccc(F)cc34)c2c1 | -0.03 | -0.05 | -0.18 | -0.13 | -0.12 | -0.14 | -0.13 | -0.15 | 0.85 | 0.34 | 0.67 | 0.31 | 0.22 | 0.2 | 0.21 | 0.12 | 0.1 | -0.02 | -0.07 | 0.54 | Growth Rate (Fibroblast; 24 h, replicate number 1): 0.45; Growth Rate (U2OS; 0 h, replicate number 1): -0.83; Growth Rate (U2OS; 6 h, replicate number 1): 0.95; Growth Rate (U2OS; 24 h, replicate number 1): 0.06 |
| COc1ncc(-c2cc(-c3ncc(CN4C[C@@H](C)O[C@@H](C)C4)o3)c3cn[nH]c3c2)cc1NS(C)(=O)=O | -0.44 | -0.64 | -0.15 | -0.32 | -0.01 | -0.2 | 0.05 | -0.11 | -0.39 | -0.16 | -0.21 | 0.05 | 0.3 | -0.02 | 0.56 | 0.02 | 0.72 | 0.21 | 0.36 | -0.56 | Growth Rate (Fibroblast; 6 h, replicate number 1): -0.74; Growth Rate (Fibroblast; 24 h, replicate number 1): -0.03; Growth Rate (U2OS; 0 h, replicate number 2): -0.39; Growth Rate (U2OS; 6 h, replicate number 1): -0.31; Growth Rate (U2OS; 24 h, replicate number 1): 0.82 |
| Cc1cc(-c2cnc(N)c3c(-c4ccc5scnc5c4)csc23)n(C)n1 | -0.34 | – | -0.15 | – | 0.02 | – | 0.06 | – | 0.42 | 0.67 | 0.91 | 0.9 | 0.92 | 0.91 | 0.94 | -0.33 | 0.91 | – | – | 0.31 | Growth Rate (Fibroblast; 0 h, replicate number 1): -1; Growth Rate (Fibroblast; 6 h, replicate number 1): 0.88; Growth Rate (U2OS; 0 h, replicate number 1): -0.98; Growth Rate (U2OS; 0 h, replicate number 2): -0.85 |
| CCN(C)S(=O)(=O)Nc1cccc(-c2ccc3c(NC(=O)C4CC4)n[nH]c3c2)c1 | -0.21 | -0.69 | -0.1 | -0.46 | -0.03 | -0.33 | 0 | -0.21 | -0.17 | -0.25 | -0.01 | -0.16 | -0.03 | -0.06 | -0.32 | 0.08 | -0.12 | 0.1 | 0.17 | -0.37 | Growth Rate (Fibroblast; 6 h, replicate number 1): -0.58; Growth Rate (Fibroblast; 24 h, replicate number 1): 0.13; Growth Rate (U2OS; 0 h, replicate number 2): -0.42; Growth Rate (U2OS; 6 h, replicate number 1): -0.66; Growth Rate (U2OS; 24 h, replicate number 1): 0.11 |
| CNc1nc(Nc2ccc(C(=O)N3CCOCC3)cc2OC)nc2[nH]cc(Cl)c12 | 0.03 | -0.31 | 0.06 | -0.05 | 0.26 | 0.08 | 0.27 | 0.24 | – | – | – | – | – | – | – | 0.5 | – | – | – | – | Growth Rate (Fibroblast; 0 h, replicate number 1): -0.95; Growth Rate (Fibroblast; 0 h, replicate number 2): -0.43; Growth Rate (U2OS; 0 h, replicate number 1): -0.99 |
| COc1cc(N2CCN(C)CC2)ccc1Nc1ncc2c(n1)N(C)c1ccccc1C(=O)N2CC(F)(F)F | -0.03 | 0 | 0.26 | 0.22 | 0.22 | 0.29 | 0.27 | 0.36 | 0.43 | 0.51 | 0.09 | 0.31 | 0.08 | 0.9 | 0.97 | – | 0.99 | 0.87 | 0.83 | 0.47 | Growth Rate (Fibroblast; 6 h, replicate number 1): 0.44; Growth Rate (Fibroblast; 24 h, replicate number 1): -0.1 |
| COc1cc(-c2cncc(-c3cnn(C4CCNCC4)c3)c2)cc(OC)c1OC | 0.84 | 0.78 | – | 0.82 | – | 0.73 | – | 0.77 | – | 0.97 | – | – | 0.9 | 0.55 | – | – | – | 0.99 | 0.94 | 0.74 | Growth Rate (Fibroblast; 0 h, replicate number 1): 0.47; Growth Rate (Fibroblast; 24 h, replicate number 1): 0.86; Growth Rate (U2OS; 0 h, replicate number 1): -1 |
| CC(C)C(=O)N[C@@H]1CCN(C(=O)Nc2nc3c(s2)-c2nc(-c4ccccc4Cl)ncc2CC3)C1 | 0.21 | -0.05 | 0.16 | -0.08 | 0.29 | 0.03 | 0.37 | 0.15 | – | – | – | – | – | – | 0.94 | 0.9 | 0.91 | 0.77 | 0.69 | – | Growth Rate (Fibroblast; 0 h, replicate number 1): -0.95; Growth Rate (U2OS; 24 h, replicate number 1): 0.88 |
| CN1C(=O)c2ccccc2N(C)c2nc(Nc3cnn(C4CCNCC4)c3)ncc21 | -0.59 | -0.85 | -0.25 | -0.41 | 0.19 | -0.15 | 0.37 | 0.07 | – | 0.94 | – | 0.43 | 0.43 | 0.15 | 0.07 | 0.18 | 0.07 | 0.23 | 0.24 | – | Growth Rate (Fibroblast; 0 h, replicate number 1): -0.99; Growth Rate (Fibroblast; 0 h, replicate number 2): -0.07; Growth Rate (U2OS; 0 h, replicate number 2): 0.12; Growth Rate (U2OS; 6 h, replicate number 1): -0.35; Growth Rate (U2OS; 24 h, replicate number 1): 0.15 |
| COc1cc2nc(-c3cc(F)ccc3O)nc(N[C@@H]3CNC[C@H]3C(C)(C)O)c2cc1OC.Cl.Cl | -0.41 and -0.9 | -0.53 | -0.39 and -0.88 | -0.5 and -0.73 | -0.28 and -0.69 | -0.42 and -0.53 | -0.23 and -0.61 | -0.33 and -0.39 | – | – | 0.18 | – | – | – | -0.39 and -0.54 | -0.46 and -0.33 | -0.4 and -0.47 | -0.37 and -0.32 | -0.34 and -0.27 | -1 | Growth Rate (Fibroblast; 0 h, replicate number 1): -1; Growth Rate (Fibroblast; 0 h, replicate number 2): 0.21; Growth Rate (Fibroblast; 6 h, replicate number 1): -0.98; Growth Rate (Fibroblast; 24 h, replicate number 1): 0.06; Growth Rate (U2OS; 0 h, replicate number 1): -0.66; Growth Rate (U2OS; 24 h, replicate number 1): -0.35 and -0.37 |
| Nc1ncnc2[nH]c(-c3ccccc3)nc12 | 0.83 | 0.23 | 0.87 | 0.55 | 0.8 | 0.68 | 0.85 | 0.78 | 0.88 | 0.9 | – | – | – | 0.92 | – | 0.9 | – | 0.95 | – | 0.95 | Growth Rate (Fibroblast; 0 h, replicate number 2): 0.44; Growth Rate (U2OS; 0 h, replicate number 1): -1; Growth Rate (U2OS; 0 h, replicate number 2): 0.55 |
